Source: US8835134B2, “Cycloastragenol monoglucoside, preparation, pharmaceutical composition and application thereof” (Tianjin Institute of Pharmaceutical Research, priority 2007, dated 2014)

Tested on: anesthetized open-chest dogs
Assay: Hemodynamics of anesthetized open-chest dogs, intravenous infusion
Type: in vivo, mongrel dogs
Method: The animals were anesthetized by intravenous injection of 30 mg/kg sodium pentobarbital, tracheally intubated, and mechanically ventilated with positive air pressure. Left thoracotomy was performed through the fourth intercostal space and the heart was suspended in a pericardial cradle, the aortic root was isolated and a probe of blood flow meter (12 or 14 mm in diameter) was fixed to measure the aortic blood flow as a representation of cardiac output (CO), the circumflex branch of left coronary artery was isolated and a probe of blood flow meter (2 or 2.5 mm in diameter) was fixed to measure the coronary blood flow (CBF). A polyethylene catheter filled with heparin physiological saline was inserted through cardiac apex into the left ventricle to measure the left ventricular pressure (LVP) and left ventricular end-diastolic pressure (LVEDP), Peak positive and peak negative first derivatives of the LVP (+ LVdp/dt and − LVdp/dt) were calculated with the Acknowledge software. The systolic blood pressure (SBP), diastolic blood pressure (DBP) and mean arterial pressure (MAP) were measured by polyethylene catheter via the femoral artery, ECG □ was measured by a AC-601G ECG amplifier. The above-mentioned analog signal was input into a data acquisition workstation (MP100, BIOPAC Systems, USA) to a computer running Acknowledge (version 3.7.1).
After surgery, various indexes before administration were recorded until the indexes were stable, and then intravenous infusion administration was conducted. Thirty dogs were divided into five groups (six dogs in each group), the experiment groups were given 0.15, 0.3, 0.6 mg/kg of ASP-[…] respectively, the normal control group was given 1 ml/kg of solvent, and the positive control group was given 0.3 mg/kg of astragaloside IV. The delivery volumes were 15 ml for each dog was and the delivery velocity was 1 ml/min. The indexes were recorded at 5, 10, 15, 20, 30, 45, 60, 90 and 120 mins after drug administration. At the end of experiment, the hearts were excised and weighted. The myocardial blood flow for per hectogram (CF), coronary resistance (CR), cardiac index (CI), left ventricular work (LVW) and total peripheral resistance (TPR) were calculated according to the following formulae: CF=CBF×[…]/heart weight CR=MAP/CF CI=CO/0.11×(body weight)^2/3 LVW=CO×(MAP−5)×1.052×0.0136 TPR=MAP×79.92/CO
Data are expressed as mean±SD ( x±s), the paired t-test was used to compare the significance between before and after administration, the unpaired t-test was adopted for comparison between groups.

[1] = 0.3 mg/kg iv, 45 min after administration
[2] = 0.3 mg/kg iv, 60 min after administration
[3] = 0.3 mg/kg iv, 90 min after administration
[4] = 0.3 mg/kg iv, 120 min after administration
[5] = 0.3 mg/kg iv, before administration
[6] = 0.6 mg/kg iv, 5 min after administration
[7] = 0.6 mg/kg iv, 10 min after administration
[8] = 0.6 mg/kg iv, 15 min after administration

CC(C)(O)[C@@H]1CC[C@](C)([C@H]2[C@@H](O)C[C@@]3(C)C4C[C@H](OC5OC(CO)C(O)C(O)C5O)C5C(C)(C)[C@@H](O)CC[C@@]56C[C@@]46CC[C@]23C)O1 (stereo partly drawn) [CMG, Cycloastragenol-6-O-β-D-glucoside]
−dp/dt change vs before administration (0.3 mg/kg iv, 30 min after administration): (36 ± 97) mmHg/s
CF [1]: 51.7 ± 23.5 ml/min/100 g
CF change vs before administration [1]: (1.6 ± 6.8) ml/min/100 g
CI [1]: 1.85 ± 0.84 L/min/m^2
CI change vs before administration [1]: (−0.13 ± 0.13) L/min/m^2
CO [1]: 1.03 ± 0.39 L/min
CO change vs before administration [1]: (−0.07 ± 0.07) L/min
CR [1]: 1.65 ± 0.92 mmHg/ml/min/100 g
CR change vs before administration [1]: (0.11 ± 0.29) mmHg/ml/min/100 g
LVEDP [1]: 0.5 ± 2.3 mmHg
LVEDP change vs before administration [1]: (−1.28 ± 0.75) mmHg
LVP [1]: 98 ± 22 mmHg
LVP change vs before administration [1]: (−4.8 ± 5.5) mmHg
LVW [1]: 1.00 ± 0.48 kg · m
LVW change vs before administration [1]: (−0.02 ± 0.11) kg · m
TPR [1]: 6068 ± 2331 dyn · s/cm^5
TPR change vs before administration [1]: (768 ± 937) dyn · s/cm^5
dp/dt [1]: 1285 ± 453 mmHg/s
dp/dt change vs before administration [1]: (24 ± 83) mmHg/s
−dp/dt [1]: −878 ± 266 mmHg/s
−dp/dt change vs before administration [1]: (43 ± 117) mmHg/s
CF [2]: 51.7 ± 23.9 ml/min/100 g
CF change vs before administration [2]: (1.6 ± 6.8) ml/min/100 g
CI [2]: 1.80 ± 0.93 L/min/m^2
CI change vs before administration [2]: (−0.19 ± 0.42) L/min/m^2
CO [2]: 1.00 ± 0.45 L/min
CO change vs before administration [2]: (−0.10 ± 0.25) L/min
CR [2]: 1.54 ± 0.75 mmHg/ml/min/100 g
CR change vs before administration [2]: (0.01 ± 0.19) mmHg/ml/min/100 g
LVEDP [2]: 0.8 ± 2.8 mmHg
LVEDP change vs before administration [2]: (−0.98 ± 0.88) mmHg
LVP [2]: 98 ± 22 mmHg
LVP change vs before administration [2]: (−5.7 ± 6.0) mmHg
LVW [2]: 0.90 ± 0.43 kg · m
LVW change vs before administration [2]: (−0.12 ± 0.26) kg · m
TPR [2]: 6625 ± 4423 dyn · s/cm^5
TPR change vs before administration [2]: (1326 ± 3485) dyn · s/cm^5
dp/dt [2]: 1272 ± 479 mmHg/s
dp/dt change vs before administration [2]: (11 ± 94) mmHg/s
−dp/dt [2]: −833 ± 236 mmHg/s
−dp/dt change vs before administration [2]: (88 ± 199) mmHg/s
CF [3]: 51.1 ± 19.1 ml/min/100 g
CF change vs before administration [3]: (1.0 ± 4.7) ml/min/100 g
CI [3]: 1.74 ± 0.98 L/min/m^2
CI change vs before administration [3]: (−0.25 ± 0.42) L/min/m^2
CO [3]: 0.96 ± 0.47 L/min
CO change vs before administration [3]: (−0.14 ± 0.24) L/min
CR [3]: 1.51 ± 0.66 mmHg/ml/min/100 g
CR change vs before administration [3]: (−0.02 ± 0.16) mmHg/ml/min/100 g
LVEDP [3]: 0.9 ± 2.6 mmHg
LVEDP change vs before administration [3]: (−0.83 ± 0.72) mmHg
LVP [3]: 99 ± 20 mmHg
LVP change vs before administration [3]: (−4.5 ± 7.0) mmHg
LVW [3]: 0.90 ± 0.53 kg · m
LVW change vs before administration [3]: (−0.12 ± 0.32) kg · m
TPR [3]: 7000 ± 4452 dyn · s/cm^5
TPR change vs before administration [3]: (1701 ± 3472 dyn · s/cm^5
dp/dt [3]: 1242 ± 437 mmHg/s
dp/dt change vs before administration [3]: (−19 ± 39) mmHg/s
−dp/dt [3]: −909 ± 312 mmHg/s
−dp/dt change vs before administration [3]: (12 ± 172) mmHg/s
CF [4]: 50.7 ± 20.1 ml/min/100 g
CF change vs before administration [4]: (0.5 ± 2.0) ml/min/100 g
CI [4]: 1.81 ± 1.07 L/min/m^2
CI change vs before administration [4]: (−0.17 ± 0.52) L/min/m^2
CO [4]: 1.00 ± 0.52 L/min
CO change vs before administration [4]: (−0.10 ± 0.30) L/min
CR [4]: 1.60 ± 0.82 mmHg/ml/min/100 g
CR change vs before administration [4]: (0.07 ± 0.21) mmHg/ml/min/100 g
LVEDP [4]: 1.0 ± 2.1 mmHg
LVEDP change vs before administration [4]: (−0.71 ± 0.45) mmHg
LVP [4]: 100 ± 23 mmHg
LVP change vs before administration [4]: (−3.5 ± 10.3) mmHg
LVW [4]: 0.94 ± 0.54 kg · m
LVW change vs before administration [4]: (−0.08 ± 0.37) kg · m
TPR [4]: 7219 ± 5040 dyn · s/cm^5
TPR change vs before administration [4]: (1920 ± 3990) dyn · s/cm^5
dp/dt [4]: 1309 ± 433 mmHg/s
dp/dt change vs before administration [4]: (48 ± 92) mmHg/s
−dp/dt [4]: −894 ± 278 mmHg/s
−dp/dt change vs before administration [4]: (27 ± 63) mmHg/s
+LVdp/dtmax maximum increase (0.3 mg/kg iv, at 5-10 min after administration): 12.0±5.0%
CF [5]: 50.2 ± 19.5 ml/min/100 g
CI [5]: 1.98 ± 0.84 L/min/m^2
CO [5]: 1.10 ± 0.38 L/min
CR [5]: 1.53 ± 0.67 mmHg/ml/min/100 g
LVEDP [5]: 1.7 ± 2.2 mmHg
LVP [5]: 103 ± 20 mmHg
LVW [5]: 1.02 ± 0.47 kg · m
TPR [5]: 5299 ± 1597 dyn · s/cm^5
dp/dt [5]: 1261 ± 453 mmHg/s
−dp/dt [5]: −921 ± 311 mmHg/s
LVEDP maximum decrease (0.6 mg/kg iv): 2.1±0.5 mmHg
CF [6]: 51.7 ± 10.5 ml/min/100 g
CF change vs before administration [6]: (0.5 ± 3.1) ml/min/100 g
CI [6]: 2.00 ± 0.56 L/min/m^2
CI change vs before administration [6]: (0.04 ± 0.16) L/min/m^2
CO [6]: 1.18 ± 0.42 L/min
CO change vs before administration [6]: (0.03 ± 0.09) L/min
CR [6]: 1.44 ± 0.39 mmHg/ml/min/100 g
CR change vs before administration [6]: (0.02 ± 0.08) mmHg/ml/min/100 g
LVEDP [6]: 1.5 ± 1.6 mmHg
LVEDP change vs before administration [6]: (−1.17 ± 0.78) mmHg
LVP [6]: 105 ± 14 mmHg
LVP change vs before administration [6]: (−1.1 ± 3.5) mmHg
LVW [6]: 1.11 ± 0.38 kg · m
LVW change vs before administration [6]: (0.03 ± 0.11) kg · m
TPR [6]: 5474 ± 2219 dyn · s/cm^5
TPR change vs before administration [6]: (−32 ± 572) dyn · s/cm^5
dp/dt [6]: 1186 ± 316 mmHg/s
dp/dt change vs before administration [6]: (83 ± 55) mmHg/s
−dp/dt [6]: −850 ± 223 mmHg/s
−dp/dt change vs before administration [6]: (2 ± 31) mmHg/s
CF [7]: 51.2 ± 8.4 ml/min/100 g
CF change vs before administration [7]: (0.0 ± 2.2) ml/min/100 g
CI [7]: 2.01 ± 0.39 L/min/m^2
CI change vs before administration [7]: (0.05 ± 0.20) L/min/m^2
CO [7]: 1.17 ± 0.33 L/min
CO change vs before administration [7]: (0.02 ± 0.11) L/min
CR [7]: 1.44 ± 0.40 mmHg/ml/min/100 g
CR change vs before administration [7]: (0.03 ± 0.12) mmHg/ml/min/100 g
LVEDP [7]: 0.9 ± 1.6 mmHg
LVEDP change vs before administration [7]: (−1.74 ± 0.68) mmHg
LVP [7]: 105 ± 17 mmHg
LVP change vs before administration [7]: (−1.3 ± 5.0) mmHg
LVW [7]: 1.11 ± 0.34 kg · m
LVW change vs before administration [7]: (0.03 ± 0.15) kg · m
TPR [7]: 5261 ± 1874 dyn · s/cm^5
TPR change vs before administration [7]: (−246 ± 497) dyn · s/cm^5
dp/dt [7]: 1198 ± 278 mmHg/s
dp/dt change vs before administration [7]: (95 ± 70) mmHg/s
−dp/dt [7]: −857 ± 238 mmHg/s
−dp/dt change vs before administration [7]: (−4 ± 46) mmHg/s
CF [8]: 51.4 ± 8.3 ml/min/100 g
CF change vs before administration [8]: (0.2 ± 3.7) ml/min/100 g
CI [8]: 2.05 ± 0.50 L/min/m^2
CI change vs before administration [8]: (0.09 ± 0.16) L/min/m^2
CO [8]: 1.20 ± 0.38 L/min
CO change vs before administration [8]: (0.05 ± 0.09) L/min
CR [8]: 1.43 ± 0.35 mmHg/ml/min/100 g
CR change vs before administration [8]: (0.01 ± 0.07) mmHg/ml/min/100 g
LVEDP [8]: 1.3 ± 1.6 mmHg
LVEDP change vs before administration [8]: (−1.38 ± 0.51) mmHg
LVP [8]: 105 ± 17 mmHg
LVP change vs before administration [8]: (−0.8 ± 4.1) mmHg
LVW [8]: 1.14 ± 0.41 kg · m
